system: Aβ1-42 production in H4 cells stably transfected with APP751 containing the Swedish mutation; test: Cellular assay for inhibition of Aβ1-42 production (H4 APP751 SWE clone 8.20); assay type: cell-based; conditions: 19 h, H4 APP751 SWE clone 8.20 cells, 19 h incubation; read-out: Aβ42 cellular IC50
Method: Cellular Assays for Inhibition of Aβ1-40 and Aβ1-42 Production
H4 cells stably transfected with APP751 containing the Swedish mutation (H4 APP751 SWE clone 8.20, developed at BMS) were maintained in log phase through twice weekly passage at a 1:20 split. […] Following incubation for 19 h in 5% CO2 at 37° C., plates were briefly centrifuged (1000 rpm, 5 min). A 10 μl aliquot from each well was transferred to a second assay plate (Costar 3709) for Aβ40 measurements. Antibody cocktails were freshly prepared by dilution into 40 mM Tris-HCl (pH 7.4) with 0.2% BSA and added to assay plates. For Aβ42 measurements, antibodies specific for the Aβ42 neoepitope (565, developed at BMS; conjugated to the Wallac reagent (Perkin Elmer)) and the N-terminal sequence of Aβ peptide (26D6, developed at SIBIA; conjugated to APC (Perkin Elmer)) were mixed and 20 μl of the mixture was added to each well of the incubated cell plate yielding a final concentration of 0.8 ng/well 565 and 75 ng/well 26D6. For the Aβ40 measurements, antibodies specific for the Aβ40 neoepitope (TSD, developed at BMS; conjugated to the Wallac reagent (Perkin Elmer)) and 26D6 as described above were mixed and 20 μl of the mixture was added to the 10 μl aliquots which had been removed previously from the cell plate yielding a final concentration of 1.6 ng/well TSD and 17.5 ng/well 26D6. Assay plates containing antibodies were sealed with aluminum foil and incubated overnight at 4° C. Signal was determined using a Viewlux counter (Perkin Elmer) and IC50 values determined using curve fitting in CurveMaster (Excel Fit based).

IC50 [nM] | SMILES
8200 | CC#Cc1cncc(-c2ccc3c(c2)[C@]2(C)N=C(N)SC[C@@H]2CCO3)c1 [Example 22a, (4aR,11bR)-11b-Methyl-10-(5-(prop-1-yn-1-yl)pyridin-3-yl)-4a,5,6,11b-tetrahydro-4H-benzo[2,3]oxepino[4,5-d][1,3]thiazin-2-amine]
1400 | CC#Cc1cncc(-c2ccc3c(c2)[C@@]2(C)N=C(N)SC[C@H]2CCO3)c1 [Example 22b, (4aS,11bS)-11b-Methyl-10-(5-(prop-1-yn-1-yl)pyridin-3-yl)-4a,5,6,11b-tetrahydro-4H-benzo[2,3]oxepino[4,5-d][1,3]thiazin-2-amine]
4500 | Cc1ncc(-c2ccc3c(c2)[C@]2(C)N=C(N)SC[C@@H]2CCO3)s1 [Example 26a, (4aR,11bR)-11b-Methyl-10-(2-methylthiazol-5-yl)-4a,5,6,11b-tetrahydro-4H-benzo[2,3]oxepino[4,5-d][1,3]thiazin-2-amine]
3200 | Cc1ncc(-c2ccc3c(c2)[C@@]2(C)N=C(N)SC[C@H]2CCO3)s1 [Example 26b, (4aS,11bS)-11b-Methyl-10-(2-methylthiazol-5-yl)-4a,5,6,11b-tetrahydro-4H-benzo[2,3]oxepino[4,5-d][1,3]thiazin-2-amine]
35 | C[C@]12N=C(N)SC[C@H]1CCOc1ccc(NC(=O)c3ccc(Cl)cn3)cc12 [Example 33a, N-((4aS,11bS)-2-amino-11b-methyl-4a,5,6,11b-tetrahydro-4H-benzo[2,3]oxepino[4,5-d][1,3]thiazin-10-yl)-5-chloropicolinamide]
7800 | C[C@@]12N=C(N)SC[C@@H]1CCOc1ccc(NC(=O)c3ccc(Cl)cn3)cc12 [Example 33b, N-((4aR,11bR)-2-amino-11b-methyl-4a,5,6,11b-tetrahydro-4H-benzo[2,3]oxepino[4,5-d][1,3]thiazin-10-yl)-5-chloropicolinamide]
6.9 | C[C@]12N=C(N)SC[C@H]1CCOc1ccc(NC(=O)c3ncc(Cl)cc3Cl)cc12 [Example 34a, N-((4aS,11bS)-2-Amino-11b-methyl-4a,5,6,11b-tetrahydro-4H-benzo[2,3]oxepino[4,5-d][1,3]thiazin-10-yl)-3,5-dichloropicolinamide]
790 | C[C@@]12N=C(N)SC[C@@H]1CCOc1ccc(NC(=O)c3ncc(Cl)cc3Cl)cc12 [Example 34b, N-((4aR,11bR)-2-Amino-11b-methyl-4a,5,6,11b-tetrahydro-4H-benzo[2,3]oxepino[4,5-d][1,3]thiazin-10-yl)-3,5-dichloropicolinamide]
17 | C[C@]12N=C(N)SC[C@H]1CCOc1ccc(NC(=O)c3ccc(F)cn3)cc12 [Example 36a, N-((4aS,11bS)-2-Amino-11b-methyl-4a,5,6,11b-tetrahydro-4H-benzo[2,3]oxepino[4,5-d][1,3]thiazin-10-yl)-5-fluoropicolinamide]
10000 | C[C@@]12N=C(N)SC[C@@H]1CCOc1ccc(NC(=O)c3ccc(F)cn3)cc12 [Example 36b, N-((4aR,11bR)-2-Amino-11b-methyl-4a,5,6,11b-tetrahydro-4H-benzo[2,3]oxepino[4,5-d][1,3]thiazin-10-yl)-5-fluoropicolinamide]
2500 | C[C@@]12N=C(N)SC[C@@H]1CCCc1ccc(NC(=O)c3ccc(F)cn3)cc12 [Example 43a, N-((4aR,11bR)-2-Amino-11b-methyl-4,4a,5,6,7,11b-hexahydrobenzo[6,7]cyclohepta[1,2-d][1,3]thiazin-10-yl)-5-fluoropicolinamide]
120 | C[C@]12N=C(N)SC[C@H]1CCCc1ccc(NC(=O)c3ccc(F)cn3)cc12 [Example 43b, N-((4aS,11bS)-2-Amino-11b-methyl-4,4a,5,6,7,11b-hexahydrobenzo[6,7]cyclohepta[1,2-d][1,3]thiazin-10-yl)-5-fluoropicolinamide]

same assay, conditions: H4 APP751 SWE clone 8.20 cells, 19 h incubation; read-out: Aβ42 cellular IC50

IC50 [nM] | SMILES
6.2 | C[C@]12N=C(N)SC[C@H]1CCOc1ccc(NC(=O)c3ccc(C#N)cn3)cc12 [Example 35b, N-((4aS,11bS)-2-amino-11b-methyl-4a,5,6,11b-tetrahydro-4H-benzo[2,3]oxepino[4,5-d][1,3]thiazin-10-yl)-5-cyanopicolinamide]
